Source: PubChem BioAssay AID248 (DTP/NCI, 2004)
“And” between values parts separate entries of the source, which are not always exact repeats. Equal entries are not always repeated. Toxic doses and inconclusive results are not listed.

Test system: L1210 leukemia ip in BDF1 mice, survival T/C
Assay: NCI In Vivo Anticancer Drug Screen. Data for tumor model L1210 Leukemia (intraperitoneal) in B6D2F1 (BDF1) mice
Conditions: endpoint: mean survival time, higher = longer survival
In short: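 In this screen, tumor-bearing mice given compound are compared to those given vehicle, and their survival values are reported as a treated-to-control quotient.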

[1] = dose: 100.0 mg/kg/injection, schedule: Q04DX002 (ip), vehicle: saline with Tween-80
[2] = dose: 200.0 mg/kg/injection, schedule: Q04DX002 (ip), vehicle: saline with Tween-80
[3] = dose: 400.0 mg/kg/injection, schedule: Q04DX002 (ip), vehicle: saline with Tween-80
[4] = dose: 100.0 mg/kg/injection, schedule: Q01DX009 (ip), vehicle: Klucel (hydroxypropylcellulose) (HPC)
[5] = dose: 100.0 mg/kg/injection, schedule: Q04DX003 (ip), vehicle: Klucel (hydroxypropylcellulose) (HPC)
[6] = dose: 200.0 mg/kg/injection, schedule: Q01DX009 (ip), vehicle: Klucel (hydroxypropylcellulose) (HPC)
[7] = dose: 200.0 mg/kg/injection, schedule: Q04DX003 (ip), vehicle: Klucel (hydroxypropylcellulose) (HPC)
[8] = dose: 400.0 mg/kg/injection, schedule: Q01DX009 (ip), vehicle: Klucel (hydroxypropylcellulose) (HPC)
[9] = dose: 400.0 mg/kg/injection, schedule: Q04DX003 (ip), vehicle: Klucel (hydroxypropylcellulose) (HPC)
[10] = dose: 100.0 mg/kg/injection, schedule: Q01DX009 (ip), vehicle: saline with Tween-80
[11] = dose: 200.0 mg/kg/injection, schedule: Q01DX009 (ip), vehicle: saline with Tween-80
[12] = dose: 400.0 mg/kg/injection, schedule: Q01DX009 (ip), vehicle: saline with Tween-80
[13] = dose: 200.0 mg/kg/injection, schedule: Q04DX003 (ip), vehicle: saline with Tween-80
[14] = dose: 100.0 mg/kg/injection, schedule: Q01DX001 (ip), vehicle: Klucel (hydroxypropylcellulose) (HPC)
[15] = dose: 200.0 mg/kg/injection, schedule: Q01DX001 (ip), vehicle: Klucel (hydroxypropylcellulose) (HPC)
[16] = dose: 400.0 mg/kg/injection, schedule: Q01DX001 (ip), vehicle: Klucel (hydroxypropylcellulose) (HPC)
[17] = dose: 100.0 mg/kg/injection, schedule: Q04DX003 (ip), vehicle: saline with Tween-80
[18] = dose: 400.0 mg/kg/injection, schedule: Q04DX003 (ip), vehicle: saline with Tween-80
[19] = dose: 50.0 mg/kg/injection, schedule: Q04DX002 (ip), vehicle: saline with Tween-80

With `CSc1n[nH]c(N=[N+]=[N-])n1` the T/C [1] was 104 % of control, the T/C [2] was 115 % of control and the T/C [3] was 104 % of control.
For `CCOC(=O)NC1CC2CCC1C2` (configuration not stated), the T/C (dose: 50.0 mg/kg/injection, schedule: Q01DX001 (ip), vehicle: carboxymethylcellulose (CMC)) was 110 % of control, the T/C (dose: 100.0 mg/kg/injection, schedule: Q01DX001 (ip), vehicle: carboxymethylcellulose (CMC)) was 103 % of control and the T/C (dose: 200.0 mg/kg/injection, schedule: Q01DX001 (ip), vehicle: carboxymethylcellulose (CMC)) was 103 % of control. The T/C (dose: 400.0 mg/kg/injection, schedule: Q01DX001 (ip), vehicle: carboxymethylcellulose (CMC)) was 103 % of control.
With `O=C(NC1CCC(NC(=O)N2CC2)CC1)N1CC1` (configuration not stated) the T/C (dose: 0.12 mg/kg/injection, schedule: Q01DX009 (ip), vehicle: carboxymethylcellulose (CMC)) was 116 % of control, the T/C (dose: 0.29 mg/kg/injection, schedule: Q01DX009 (ip), vehicle: carboxymethylcellulose (CMC)) was 120 % of control and the T/C (dose: 0.8 mg/kg/injection, schedule: Q01DX009 (ip), vehicle: carboxymethylcellulose (CMC)) was 164 % of control. For the same compound, the T/C (dose: 1.0 mg/kg/injection, schedule: Q01DX009 (ip), vehicle: carboxymethylcellulose (CMC)) was 118 % of control, the T/C (dose: 1.2 mg/kg/injection, schedule: Q01DX009 (ip), vehicle: carboxymethylcellulose (CMC)) was 164 % of control and the T/C (dose: 1.3 mg/kg/injection, schedule: Q01DX001 (ip), vehicle: carboxymethylcellulose (CMC)) was 114 % of control and 115 % of control. The T/C (dose: 1.3 mg/kg/injection, schedule: Q01DX009 (ip), vehicle: carboxymethylcellulose (CMC)) was 94 % of control, the T/C (dose: 1.8 mg/kg/injection, schedule: Q01DX009 (ip), vehicle: carboxymethylcellulose (CMC)) was 170 % of control and the T/C (dose: 2.0 mg/kg/injection, schedule: Q01DX001 (ip), vehicle: carboxymethylcellulose (CMC)) was 112 % of control and 123 % of control. For the same compound, the T/C (dose: 2.0 mg/kg/injection, schedule: Q01DX009 (ip), vehicle: carboxymethylcellulose (CMC)) was 94 % of control, the T/C (dose: 2.5 mg/kg/injection, schedule: Q01DX009 (ip), vehicle: carboxymethylcellulose (CMC)) was 120 % of control and the T/C (dose: 3.0 mg/kg/injection, schedule: Q01DX001 (ip), vehicle: carboxymethylcellulose (CMC)) was 119 % of control. The T/C (dose: 3.37 mg/kg/injection, schedule: Q01DX009 (ip), vehicle: carboxymethylcellulose (CMC)) was 97 % of control and the T/C (dose: 4.5 mg/kg/injection, schedule: Q01DX001 (ip), vehicle: carboxymethylcellulose (CMC)) was 151 % of control.
In the case of `O=C(Nc1ccccc1)Nc1ccc(Cl)c(Cl)c1`, the T/C (dose: 100.0 mg/kg/injection, schedule: Q01DX001 (ip), vehicle: saline with Tween-80) is reported as 95 % of control, the T/C [4] is reported as 101 % of control and the T/C [5] is reported as 107 % of control. The T/C (dose: 200.0 mg/kg/injection, schedule: Q01DX001 (ip), vehicle: saline with Tween-80) was 97 % of control, the T/C [6] was 94 % of control and the T/C [7] was 89 % of control. The T/C (dose: 400.0 mg/kg/injection, schedule: Q01DX001 (ip), vehicle: saline with Tween-80) was 90 % of control, the T/C [8] was 95 % of control and the T/C [9] was 86 % of control.
`O=C(C(O)C(O)C(O)C(O)CO)N1CCC(c2ccccc2)(c2ccccc2)CC1` (configuration not stated) was tested, and the T/C (dose: 100.0 mg/kg/injection, schedule: Q01DX003 (ip), vehicle: saline) was 91 % of control, the T/C (dose: 200.0 mg/kg/injection, schedule: Q01DX003 (ip), vehicle: saline) was 94 % of control and the T/C (dose: 400.0 mg/kg/injection, schedule: Q01DX003 (ip), vehicle: saline) was 87 % of control.
In the case of `Cc1ccc(S(=O)(=O)OC2COCOC2)cc1`, the T/C [10] is reported as 110 % of control, the T/C [11] is reported as 102 % of control and the T/C [12] is reported as 91 % of control.
`O=C1C(=O)N(CNC(c2ccccc2)c2ccccc2)c2ccccc21` was tested, and the T/C [13] was 87 % of control and the T/C [12] was 96 % of control.
For `O=c1cc(Nc2ccccc2)[nH]c(=O)[nH]1`, the T/C [14] was 92 % of control, the T/C [15] was 93 % of control and the T/C [16] was 95 % of control.
In the case of `CSc1nc(N)nc2nc(C)cc(C)c12`, the T/C (dose: 100.0 mg/kg/injection, schedule: Q01DX Z (ip), vehicle: methylcellulose (MC)) is reported as 110 % of control.
`CCCCCCCCSCCCCCCCCCCCSCCCCCCCC` was tested, and the T/C [14] was 102 % of control and the T/C [15] was 92 % of control.
With `O=[N+]([O-])c1cc2c3ccccc3ccc2c2ccccc12` the T/C [4] was 96 % of control, the T/C [5] was 95 % of control and the T/C [6] was 94 % of control. For the same compound, the T/C [7] was 97 % of control, the T/C [8] was 100 % of control and the T/C [9] was 94 % of control.
In the case of `Cc1ccc(NNS(=O)(=O)c2cccc([N+](=O)[O-])c2)c(Br)c1`, the T/C [14] is reported as 96 % of control, the T/C [5] is reported as 102 % of control and the T/C [15] is reported as 94 % of control. For the same compound, the T/C [7] was 96 % of control, the T/C [16] was 100 % of control and the T/C [9] was 96 % of control.
For `c1ccc2sc(SN3CCOCC3)nc2c1`, the T/C [10] was 95 % of control, the T/C [17] was 100 % of control and the T/C [11] was 92 % of control. For the same compound, the T/C [13] was 87 % of control, the T/C [12] was 92 % of control and the T/C [18] was 89 % of control.
`[O-][n+]1ccc(-c2ccccc2)cc1` was tested, and the T/C (dose: 100.0 mg/kg/injection, schedule: Q04DX002 (ip), vehicle: saline) was 107 % of control and the T/C (dose: 200.0 mg/kg/injection, schedule: Q04DX002 (ip), vehicle: saline) was 96 % of control.
For `C=CCc1cnc(N)[nH]c1=O`, the T/C [17] was 103 % of control, the T/C [13] was 97 % of control and the T/C [18] was 100 % of control.
For `O=C(O)C(Cc1cc(I)c(O)c(I)c1)c1ccccc1` (configuration not stated), the T/C (dose: 50.0 mg/kg/injection, schedule: Q01DX009 (ip), vehicle: Klucel (hydroxypropylcellulose) (HPC)) was 98 % of control, the T/C [4] was 97 % of control and the T/C [5] was 100 % of control. For the same compound, the T/C [6] was 101 % of control and the T/C [7] was 100 % of control.
In the case of `O=C(C1OC1c1ccccc1)C1OC1c1ccccc1` (configuration not stated), the T/C [4] is reported as 98 % of control, the T/C [6] is reported as 101 % of control and the T/C [8] is reported as 95 % of control.
In the case of `O=C(O)COc1ccc(Cl)cc1CC(=O)O`, the T/C [19] is reported as 99 % of control, the T/C [1] is reported as 100 % of control and 105 % of control and the T/C [2] is reported as 99 % of control and 103 % of control. For the same compound, the T/C [3] was 103 % of control.
For `CCc1cc2oc(C)c(C)c2c(N=Nc2cccc([N+](=O)[O-])c2)c1O`, the T/C (dose: 100.0 mg/kg/injection, schedule: Q04DX002 (ip), vehicle: Klucel (hydroxypropylcellulose) (HPC)) was 96 % of control, the T/C (dose: 200.0 mg/kg/injection, schedule: Q04DX002 (ip), vehicle: Klucel (hydroxypropylcellulose) (HPC)) was 96 % of control and the T/C (dose: 400.0 mg/kg/injection, schedule: Q04DX002 (ip), vehicle: Klucel (hydroxypropylcellulose) (HPC)) was 93 % of control.
For `CCN1CC1`, the T/C (dose: 6.25 mg/kg/injection, schedule: Q01DX009 (ip), vehicle: Klucel (hydroxypropylcellulose) (HPC)) was 98 % of control, the T/C (dose: 6.25 mg/kg/injection, schedule: Q04DX003 (ip), vehicle: Klucel (hydroxypropylcellulose) (HPC)) was 96 % of control and the T/C (dose: 12.5 mg/kg/injection, schedule: Q01DX009 (ip), vehicle: Klucel (hydroxypropylcellulose) (HPC)) was 107 % of control. The T/C (dose: 12.5 mg/kg/injection, schedule: Q04DX003 (ip), vehicle: Klucel (hydroxypropylcellulose) (HPC)) was 90 % of control and the T/C (dose: 25.0 mg/kg/injection, schedule: Q04DX003 (ip), vehicle: Klucel (hydroxypropylcellulose) (HPC)) was 109 % of control.
With `COC1=NS(=O)(=O)N=C(C)O1` the T/C [5] was 91 % of control, the T/C [7] was 102 % of control and the T/C [9] was 93 % of control.
`CCCc1c(N)nc(=S)[nH]c1C(=O)O` was tested, and the T/C [4] was 102 % of control, the T/C (dose: 100.0 mg/kg/injection, schedule: Q04DX003 (ip), vehicle: saline) was 96 % of control and the T/C [6] was 97 % of control. The T/C (dose: 200.0 mg/kg/injection, schedule: Q04DX003 (ip), vehicle: saline) was 119 % of control and the T/C [8] was 94 % of control.
In the case of `O=C1NC(=O)C2CCCCC12` (configuration not stated), the T/C [1] is reported as 90 % of control, the T/C [17] is reported as 96 % of control and the T/C [2] is reported as 121 % of control. For the same compound, the T/C [13] was 104 % of control, the T/C [3] was 107 % of control and the T/C [18] was 104 % of control.
With `CC(C)=CCOC1=CC(=O)C(=O)c2ccccc21` the T/C (dose: 25.0 mg/kg/injection, schedule: Q04DX002 (ip), vehicle: saline with Tween-80) was 87 % of control, the T/C (dose: 25.0 mg/kg/injection, schedule: Q04DX003 (ip), vehicle: saline with Tween-80) was 94 % of control and the T/C [19] was 95 % of control. The T/C (dose: 50.0 mg/kg/injection, schedule: Q04DX003 (ip), vehicle: saline with Tween-80) was 93 % of control, the T/C [1] was 95 % of control and the T/C [17] was 99 % of control.
